Data: US20210045385A1, “PYRIDAZINONE-SUBSTITUTED KETOXIMES AS HERBICIDES” (FMC Corporation, priority 2018, published 2021)

Experiments:
Assay type in all cases: in vivo
[1] = tested on: barnyardgrass (Echinochloa crus-galli); test: Test A preemergence, visual plant response rating; conditions: for Barnyardgrass plant response rating: 125 g ai/ha, preemergence, 0 to 100 scale, 0 no effect, 100 complete control; for Barnyardgrass plant response rating (0 to 100 scale): 500 g ai/ha Preemergence, approx. 10 days
How it was run: (§1)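 Ratings 0–100 (100 = complete control), visual, vs untreated controls at ~10 days. Application pre- or postemergence; solvent mixture with surfactant; loam/sand medium.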

[2] = tested on: pigweed (Amaranthus retroflexus); test: Test A preemergence, visual plant response rating; conditions: for Pigweed plant response rating: 125 g ai/ha, preemergence, 0 to 100 scale, 0 no effect, 100 complete control; for Pigweed plant response rating (0 to 100 scale): 500 g ai/ha Preemergence, approx. 10 days
How it was run: as §1

[3] = tested on: ragweed (common ragweed, Ambrosia elatior); test: Test A preemergence, visual plant response rating; conditions: for Ragweed plant response rating: 125 g ai/ha, preemergence, 0 to 100 scale, 0 no effect, 100 complete control; for Ragweed plant response rating (0 to 100 scale): 500 g ai/ha Preemergence, approx. 10 days
How it was run: as §1

[4] = tested on: Italian ryegrass (Lolium multiflorum); test: Test A preemergence, visual plant response rating; conditions: for Ryegrass, Italian plant response rating: 125 g ai/ha, preemergence, 0 to 100 scale, 0 no effect, 100 complete control; for Ryegrass, Italian plant response rating (0 to 100 scale): 500 g ai/ha Preemergence, approx. 10 days
How it was run: as §1

kochia (Kochia scoparia) [5] = test: Test A preemergence, visual plant response rating; conditions: for Kochia plant response rating: 125 g ai/ha, preemergence, 0 to 100 scale, 0 no effect, 100 complete control; for Kochia plant response rating (0 to 100 scale): 500 g ai/ha Preemergence, approx. 10 days
How it was run: as §1

[6] = tested on: foxtail, giant (giant foxtail, Setaria faberii); test: Test A preemergence, visual plant response rating; conditions: for Foxtail, Giant plant response rating: 125 g ai/ha, preemergence, 0 to 100 scale, 0 no effect, 100 complete control; for Foxtail, Giant plant response rating (0 to 100 scale): 500 g ai/ha Preemergence, approx. 10 days
How it was run: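 Greenhouse pot test in loam–sand soil mix: compound in a surfactant-containing non-phytotoxic solvent applied preemergence (directed soil spray) or postemergence (one- to two-leaf plants, 2–10 cm). Injury scored visually after ~10 days, 0–100.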

[7] = tested on: wheat (Triticum aestivum); test: Test A postemergence, visual plant response rating; conditions: for Wheat plant response rating (0 to 100 scale): 500 g ai/ha, postemergence, 0 is no effect, 100 is complete control; for Wheat plant response rating: Postemergence, 125 g ai/ha, 0 to 100 scale (0 no effect, 100 complete control)
How it was run: as §1

[8] = tested on: barnyardgrass (Echinochloa crus-galli); test: Test A postemergence, visual plant response rating; conditions: for Barnyardgrass plant response rating (0 to 100 scale): 500 g ai/ha, postemergence, 0 is no effect, 100 is complete control; for Barnyardgrass plant response rating: Postemergence, 125 g ai/ha, 0 to 100 scale (0 no effect, 100 complete control)
How it was run: as §1

[9] = tested on: pigweed (Amaranthus retroflexus); test: Test A postemergence, visual plant response rating; conditions: for Pigweed plant response rating (0 to 100 scale): 500 g ai/ha, postemergence, 0 is no effect, 100 is complete control; for Pigweed plant response rating: Postemergence, 125 g ai/ha, 0 to 100 scale (0 no effect, 100 complete control)
How it was run: as §1

[10] = tested on: galium (catchweed bedstraw, Galium aparine); test: Test A postemergence, visual plant response rating; conditions: for Galium plant response rating (0 to 100 scale): 500 g ai/ha, postemergence, 0 is no effect, 100 is complete control; for Galium plant response rating: Postemergence, 125 g ai/ha, 0 to 100 scale (0 no effect, 100 complete control)
How it was run: as §1

[11] = tested on: blackgrass (Alopecurus myosuroides); test: Test A postemergence, visual plant response rating; conditions: for Blackgrass plant response rating (0 to 100 scale): 500 g ai/ha, postemergence, 0 is no effect, 100 is complete control; for Blackgrass plant response rating: Postemergence, 125 g ai/ha, 0 to 100 scale (0 no effect, 100 complete control)
How it was run: as §1

[12] = tested on: ragweed (common ragweed, Ambrosia elatior); test: Test A postemergence, visual plant response rating; conditions: for Ragweed plant response rating (0 to 100 scale): 500 g ai/ha, postemergence, 0 is no effect, 100 is complete control; for Ragweed plant response rating: Postemergence, 125 g ai/ha, 0 to 100 scale (0 no effect, 100 complete control)
How it was run: as §1

corn (Zea mays) = test: Test A postemergence, visual plant response rating; conditions: for Corn plant response rating (0 to 100 scale): 500 g ai/ha, postemergence, 0 is no effect, 100 is complete control; for Corn plant response rating: Postemergence, 125 g ai/ha, 0 to 100 scale (0 no effect, 100 complete control)
How it was run: as §1

[13] = tested on: Italian ryegrass (Lolium multiflorum); test: Test A postemergence, visual plant response rating; conditions: for Ryegrass, Italian plant response rating (0 to 100 scale): 500 g ai/ha, postemergence, 0 is no effect, 100 is complete control; for Ryegrass, Italian plant response rating: Postemergence, 125 g ai/ha, 0 to 100 scale (0 no effect, 100 complete control)
How it was run: as §1

kochia (Kochia scoparia) [14] = test: Test A postemergence, visual plant response rating; conditions: for Kochia plant response rating (0 to 100 scale): 500 g ai/ha, postemergence, 0 is no effect, 100 is complete control; for Kochia plant response rating: Postemergence, 125 g ai/ha, 0 to 100 scale (0 no effect, 100 complete control)
How it was run: as §1

[15] = tested on: foxtail, giant (giant foxtail, Setaria faberii); test: Test A postemergence, visual plant response rating; conditions: for Foxtail, Giant plant response rating (0 to 100 scale): 500 g ai/ha, postemergence, 0 is no effect, 100 is complete control; for Foxtail, Giant plant response rating: Postemergence, 125 g ai/ha, 0 to 100 scale (0 no effect, 100 complete control)
How it was run: as §1

[16] = tested on: barnyardgrass (Echinochloa crus-galli); test: Test B flooded paddy test, visual plant response rating; conditions: 250 g ai/ha, Flood, applied to paddy water, 2-leaf stage, evaluated after 13 to 15 days
How it was run: (§2)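 Visual scores compare treated plants with controls after 13 to 15 days of greenhouse growth. Treatment was made into paddy water standing 3 cm above the soil, with plants at the 2-leaf stage and flooding maintained throughout.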

[17] = tested on: sedge, umbrella (small-flower umbrella sedge, Cyperus difformis); test: as above; conditions: 250 g ai/ha, Flood, applied to paddy water, 2-leaf stage, evaluated after 13 to 15 days
How it was run: as §2

[18] = tested on: ducksalad (Heteranhera limosa); test: as above; conditions: 250 g ai/ha, Flood, applied to paddy water, 2-leaf stage, evaluated after 13 to 15 days
How it was run: as §2

rice (Oryza sativa) = test: as above; conditions: 250 g ai/ha, Flood, applied to paddy water, 2-leaf stage, evaluated after 13 to 15 days
How it was run: as §2

SMILES | Barnyardgrass plant response rating [1] | Barnyardgrass plant response rating (0 to 100 scale) [1] | Pigweed plant response rating [2] | Pigweed plant response rating (0 to 100 scale) [2] | Ragweed plant response rating [3] | Ragweed plant response rating (0 to 100 scale) [3] | Ryegrass, Italian plant response rating [4] | Ryegrass, Italian plant response rating (0 to 100 scale) [4] | Kochia plant response rating (kochia (Kochia scoparia) [5]) | Kochia plant response rating (0 to 100 scale) (kochia (Kochia scoparia) [5]) | Foxtail, Giant plant response rating [6] | Foxtail, Giant plant response rating (0 to 100 scale) [6] | Wheat plant response rating (0 to 100 scale) [7] | Wheat plant response rating [7] | Barnyardgrass plant response rating (0 to 100 scale) [8] | Barnyardgrass plant response rating [8] | Pigweed plant response rating (0 to 100 scale) [9] | Pigweed plant response rating [9] | Galium plant response rating (0 to 100 scale) [10] | Galium plant response rating [10] | further results
CO/N=C(\c1csc(C)c1)c1c(O)c(C)nn(C)c1=O [Compound 44] | 0 | 10 | 0 | 0 | 0 | 0 | 0 | 50 | 0 | 0 | 0 | 10 | 0 | 0 | 30 | 0 | 10 | 10 | 50 | 20 | Blackgrass plant response rating (0 to 100 scale) [11]: 30; Blackgrass plant response rating [11]: 0; Ragweed plant response rating (0 to 100 scale) [12]: 40; Ragweed plant response rating [12]: 0; Corn plant response rating (0 to 100 scale) (corn (Zea mays)): 20; Corn plant response rating (corn (Zea mays)): 0; Ryegrass, Italian plant response rating (0 to 100 scale) [13]: 0; Ryegrass, Italian plant response rating [13]: 20; Kochia plant response rating (0 to 100 scale) (kochia (Kochia scoparia) [14]): 0; Kochia plant response rating (kochia (Kochia scoparia) [14]): 0; Foxtail, Giant plant response rating (0 to 100 scale) [15]: 50; Foxtail, Giant plant response rating [15]: 0; Plant response rating, Barnyardgrass (0 to 100 scale, 0 is no effect, 100 is complete control) [16]: 0; Plant response rating, Sedge, Umbrella (0 to 100 scale, 0 is no effect, 100 is complete control) [17]: 0; Plant response rating, Ducksalad (0 to 100 scale, 0 is no effect, 100 is complete control) [18]: 0; Plant response rating, Rice (0 to 100 scale, 0 is no effect, 100 is complete control) (rice (Oryza sativa)): 0
CON=C(c1c(OC(C)=O)c(C)nn(C)c1=O)c1cccc2ccccc12 [Compound 48] | 20 | 70 | 30 | 100 | 100 | 100 | 40 | 70 | 40 | 100 | 90 | 90 | 10 | 0 | 30 | 20 | 90 | 80 | 90 | 80 | Blackgrass plant response rating (0 to 100 scale) [11]: 90; Blackgrass plant response rating [11]: 70; Ragweed plant response rating (0 to 100 scale) [12]: 90; Ragweed plant response rating [12]: 80; Corn plant response rating (0 to 100 scale) (corn (Zea mays)): 80; Corn plant response rating (corn (Zea mays)): 10; Ryegrass, Italian plant response rating (0 to 100 scale) [13]: 80; Ryegrass, Italian plant response rating [13]: 70; Kochia plant response rating (0 to 100 scale) (kochia (Kochia scoparia) [14]): 80; Kochia plant response rating (kochia (Kochia scoparia) [14]): 70; Foxtail, Giant plant response rating (0 to 100 scale) [15]: 80; Foxtail, Giant plant response rating [15]: 30; Plant response rating, Barnyardgrass (0 to 100 scale, 0 is no effect, 100 is complete control) [16]: 0; Plant response rating, Sedge, Umbrella (0 to 100 scale, 0 is no effect, 100 is complete control) [17]: 0; Plant response rating, Ducksalad (0 to 100 scale, 0 is no effect, 100 is complete control) [18]: 0; Plant response rating, Rice (0 to 100 scale, 0 is no effect, 100 is complete control) (rice (Oryza sativa)): 0
